Values of other authors, collected in patent US20100093758A1, “PYRIDINE SULFONAMIDE MODULATORS OF ENDOTHELIN-A RECEPTOR” (AUSPEX PHARMACEUTICALS, INC., priority 2008, published 2010).

What was measured:
[1] = not given; remark: listed apart in the source

- time at which maximum plasma levels are reached (in vivo): ≤ 4.5 h
- urinary excretion (in vivo): below 0.1 % of any dose
SMILES: COc1ccccc1Oc1c(NS(=O)(=O)c2ccc(C)cn2)nc(-c2ccncc2)nc1OC [Avosentan, 5-Methyl-pyridine-2-sulfonic acid [6-methoxy-5-(2-methoxy-phenoxy)-2-pyridin-4-yl-pyrimidin-4-yl]-amide]
- dose dependence of Cmax and AUC (doses up to 100 mg): increase linearly with doses up to 100 mg
- food effect on exposure and Cmax (with food): does not affect overall exposure but increases Cmax
- fluid retention ([1]; at high concentrations): higher-than-expected rate of fluid retention
- adverse events ([1]; typical for vasodilating agents): headache, nausea and vomiting, dizziness, and postural hypotension
